Reference: the supplement of paper PMC13380429
± gives the standard deviation of the averaged measurements.

Key:
Conditions in all cases: 72 h
[1] = system: U2OS; assay: cell viability relative to DMSO; higher = less toxic
[2] = system: Caco-2; assay: as above
[3] = system: HepG2; assay: as above
[4] = system: Calu-3; assay: as above
[5] = system: Vero E6; assay: as above
[6] = system: U2OS; assay: drug sensitivity score (DSS) for viability; higher = more toxic; extreme values may be limits of the assay
[7] = system: Caco-2; assay: as above
[8] = system: HepG2; assay: as above
[9] = system: Calu-3; assay: as above
[10] = system: Vero E6; assay: as above
[11] = system: U2OS; assay: relative viability EC50 (midpoint between 100% and the lowest measured viability); higher = less toxic
[12] = system: Caco-2; assay: as above
[13] = system: HepG2; assay: as above
[14] = system: Calu-3; assay: as above
[15] = system: Vero E6; assay: as above

CNC(=O)c1cc2c(cn1)[nH]c1ccccc12 [FG-7142]
cell viability ([1]; 1 nM): 98.2%
cell viability ([1]; 10 nM): 100%
cell viability ([1]; 100 nM): 96.9%
cell viability ([1]; 1000 nM): 100%
cell viability ([1]; 10000 nM): 96.9%
cell viability ([2]; 1 nM): 97.7%
cell viability ([2]; 10 nM): 104%
cell viability ([2]; 100 nM): 92.2%
cell viability ([2]; 1000 nM): 89.8%
cell viability ([2]; 10000 nM): 88.2%
cell viability ([3]; 1 nM): 101%
cell viability ([3]; 10 nM): 88.4%
cell viability ([3]; 100 nM): 107%
cell viability ([3]; 1000 nM): 96.3%
cell viability ([3]; 10000 nM): 110%
cell viability ([4]; 1 nM): 96.9%
cell viability ([4]; 10 nM): 91.8%
cell viability ([4]; 100 nM): 98.2%
cell viability ([4]; 1000 nM): 100%
cell viability ([4]; 10000 nM): 103%
cell viability ([5]; 1 nM): 102%
cell viability ([5]; 10 nM): 95.7%
cell viability ([5]; 100 nM): 98.2%
cell viability ([5]; 1000 nM): 100%
cell viability ([5]; 10000 nM): 101%
drug sensitivity score [6]: 0
drug sensitivity score [7]: 0.8
drug sensitivity score [8]: 0
drug sensitivity score [9]: 0
drug sensitivity score [10]: 0
relative viability EC50 [11]: > 10 µM
relative viability EC50 [12]: > 10 µM
relative viability EC50 [13]: > 10 µM
relative viability EC50 [14]: > 10 µM
relative viability EC50 [15]: > 10 µM

N[C@H](Cc1ccccc1)C(=O)O [D-phenylalanine]
cell viability ([1]; 1 nM): 95.6%
cell viability ([1]; 10 nM): 101%
cell viability ([1]; 100 nM): 96.5%
cell viability ([1]; 1000 nM): 95.2%
cell viability ([1]; 10000 nM): 99.8%
cell viability ([2]; 1 nM): 94.6%
cell viability ([2]; 10 nM): 101%
cell viability ([2]; 100 nM): 90.8%
cell viability ([2]; 1000 nM): 95.8%
cell viability ([2]; 10000 nM): 93.8%
cell viability ([3]; 1 nM): 99.7%
cell viability ([3]; 10 nM): 109%
cell viability ([3]; 100 nM): 90.4%
cell viability ([3]; 1000 nM): 105%
cell viability ([3]; 10000 nM): 100%
cell viability ([4]; 1 nM): 98.3%
cell viability ([4]; 10 nM): 95.2%
cell viability ([4]; 100 nM): 111%
cell viability ([4]; 1000 nM): 102%
cell viability ([4]; 10000 nM): 105%
cell viability ([5]; 1 nM): 108%
cell viability ([5]; 10 nM): 100%
cell viability ([5]; 100 nM): 104%
cell viability ([5]; 1000 nM): 101%
cell viability ([5]; 10000 nM): 96.1%
drug sensitivity score [6]: 0
drug sensitivity score [7]: 0
drug sensitivity score [8]: 0
drug sensitivity score [9]: 0
drug sensitivity score [10]: 0
relative viability EC50 [11]: > 10 µM
relative viability EC50 [12]: > 10 µM
relative viability EC50 [13]: > 10 µM
relative viability EC50 [14]: > 10 µM
relative viability EC50 [15]: > 10 µM

O=S1(=O)c2cccc3cccc(c23)N1CCCN1CCN(c2ccc(F)cc2)CC1 [fananserin]
cell viability ([1]; 1 nM): 101%
cell viability ([1]; 10 nM): 102%
cell viability ([1]; 100 nM): 100%
cell viability ([1]; 1000 nM): 103%
cell viability ([1]; 10000 nM): 99.3%
cell viability ([2]; 1 nM): 105%
cell viability ([2]; 10 nM): 102%
cell viability ([2]; 100 nM): 100%
cell viability ([2]; 1000 nM): 100%
cell viability ([2]; 10000 nM): 96.7%
cell viability ([3]; 1 nM): 96.4%
cell viability ([3]; 10 nM): 106%
cell viability ([3]; 100 nM): 107%
cell viability ([3]; 1000 nM): 94%
cell viability ([3]; 10000 nM): 95.4%
cell viability ([4]; 1 nM): 108%
cell viability ([4]; 10 nM): 89.5%
cell viability ([4]; 100 nM): 94.2%
cell viability ([4]; 1000 nM): 111%
cell viability ([4]; 10000 nM): 104%
cell viability ([5]; 1 nM): 96.8%
cell viability ([5]; 10 nM): 96.9%
cell viability ([5]; 100 nM): 98.1%
cell viability ([5]; 1000 nM): 91.8%
cell viability ([5]; 10000 nM): 94.6%
drug sensitivity score [6]: 0
drug sensitivity score [7]: 0
drug sensitivity score [8]: 0
drug sensitivity score [9]: 0
drug sensitivity score [10]: 0
relative viability EC50 [11]: > 10 µM
relative viability EC50 [12]: > 10 µM
relative viability EC50 [13]: > 10 µM
relative viability EC50 [14]: > 10 µM
relative viability EC50 [15]: > 10 µM

CC(C)(C)NC[C@H](O)COc1cccc2c1CCCC2=O [levobunolol]
cell viability ([1]; 1 nM): 97.15 ± 0.78%
cell viability ([1]; 10 nM): 102 ± 2%
cell viability ([1]; 100 nM): 101.5 ± 0.21%
cell viability ([1]; 1000 nM): 101.3 ± 0.78%
cell viability ([1]; 10000 nM): 103 ± 0.21%
cell viability ([2]; 1 nM): 88 ± 1.8%
cell viability ([2]; 10 nM): 94.8 ± 5.9%
cell viability ([2]; 100 nM): 96 ± 4.7%
cell viability ([2]; 1000 nM): 101.3 ± 0.64%
cell viability ([2]; 10000 nM): 97.2 ± 1.1%
cell viability ([3]; 1 nM): 100 ± 4.1%
cell viability ([3]; 10 nM): 95.8 ± 2.8%
cell viability ([3]; 100 nM): 112 ± 2%
cell viability ([3]; 1000 nM): 94.8 ± 4.3%
cell viability ([3]; 10000 nM): 97.9 ± 2.4%
cell viability ([4]; 1 nM): 99.2 ± 9.6%
cell viability ([4]; 10 nM): 102 ± 0.99%
cell viability ([4]; 100 nM): 93.9 ± 3.1%
cell viability ([4]; 1000 nM): 103 ± 3.2%
cell viability ([4]; 10000 nM): 104.25 ± 0.071%
cell viability ([5]; 1 nM): 105 ± 6.1%
cell viability ([5]; 10 nM): 94.6 ± 2.8%
cell viability ([5]; 100 nM): 95.6 ± 5.7%
cell viability ([5]; 1000 nM): 90.5 ± 3.1%
cell viability ([5]; 10000 nM): 101 ± 3.8%
drug sensitivity score [6]: 0
drug sensitivity score [7]: 0
drug sensitivity score [8]: 0
drug sensitivity score [9]: 0
drug sensitivity score [10]: 0
relative viability EC50 [11]: > 10 µM
relative viability EC50 [12]: > 10 µM
relative viability EC50 [13]: > 10 µM
relative viability EC50 [14]: > 10 µM
relative viability EC50 [15]: > 10 µM
